In ChEMBL document CHEMBL1275606, “Novel chromosome-encoded CTX-M-78 beta-lactamase from a Kluyvera georgiana clinical isolate as a putative origin of CTX-M-25 subgroup” (2010):
≈ marks a conversion by molar mass, not a printed value.

Legend:
Format in all cases: functional
Escherichia coli [1] = experiment: Antimicrobial activity against Escherichia coli TOP10F' transformant harboring beta-lactamase CTX-M-78 by […]
Kluyvera georgiana [2] = experiment: Antimicrobial activity against Kluyvera georgiana 14751 expressing beta-lactamase CTX-M-78 obtained from bloodstream of patient by […]
Kluyvera georgiana [3] = experiment: Antimicrobial activity against Kluyvera georgiana 14751 expressing beta-lactamase CTX-M-78 obtained from bloodstream of patient by […] in presence of beta-lactamase inhibitor clavulanic acid
Escherichia coli [4] = experiment: Antimicrobial activity against Escherichia coli TOP10F' by […]

| Molecule | MIC (Escherichia coli [1]) | MIC (Kluyvera georgiana [2]) | MIC (Kluyvera georgiana [3]) | MIC (Escherichia coli [4]) |
| --- | --- | --- | --- | --- |
| CC1(C)S[C@@H]2[C@H](NC(=O)[C@H](N)c3ccccc3)C(=O)N2[C@H]1C(=O)O [AMPICILLIN] | 256 µg/mL (≈ 733 µM) | 256 µg/mL (≈ 733 µM) | 4 µg/mL |  |
| C[C@H]1[C@H](NC(=O)/C(=N\OC(C)(C)C(=O)O)c2csc(N)n2)C(=O)N1S(=O)(=O)O [AZTREONAM] | 0.5 µg/mL (≈ 1.15 µM) | ≤ 0.016 µg/mL |  |  |
| CO/N=C(\C(=O)N[C@@H]1C(=O)N2C(C(=O)[O-])=C(C[N+]3(C)CCCC3)CS[C@H]12)c1csc(N)n1 [CEFEPIME] | 0.5 µg/mL (≈ 1.04 µM) | 0.032 µg/mL (≈ 0.0666 µM) |  | 0.016 µg/mL (≈ 0.0333 µM) |
| CO/N=C(\C(=O)N[C@@H]1C(=O)N2C(C(=O)O)=C(COC(C)=O)CS[C@H]12)c1csc(N)n1 [CEFOTAXIME] | 1 µg/mL (≈ 2.2 µM) | 0.032 µg/mL (≈ 0.0703 µM) |  | ≤ 0.016 µg/mL |
| CO[C@@]1(NC(=O)Cc2cccs2)C(=O)N2C(C(=O)O)=C(COC(N)=O)CS[C@@H]21 [CEFOXITIN] | 2 µg/mL (≈ 4.68 µM) | 1 µg/mL (≈ 2.34 µM) |  | 2 µg/mL (≈ 4.68 µM) |
| CC(C)(O/N=C(\C(=O)N[C@@H]1C(=O)N2C(C(=O)[O-])=C(C[n+]3ccccc3)CS[C@H]12)c1csc(N)n1)C(=O)O [CEFTAZIDIME] | 0.25 µg/mL (≈ 0.457 µM) | 0.063 µg/mL (≈ 0.115 µM) |  | 0.125 µg/mL (≈ 0.229 µM) |
| CC(=O)OCC1=C(C(=O)O)N2C(=O)[C@@H](NC(=O)Cc3cccs3)[C@H]2SC1 [CEPHALOTHIN] | 256 µg/mL (≈ 646 µM) | 8 µg/mL (≈ 20.2 µM) |  | 2 µg/mL (≈ 5.04 µM) |
| NC[C@H]1O[C@H](O[C@H]2[C@H](O)[C@@H](O[C@H]3O[C@H](CO)[C@@H](O)[C@H](N)[C@H]3O)[C@H](N)C[C@@H]2N)[C@H](O)[C@@H](O)[C@@H]1O [KANAMYCIN] | 256 µg/mL (≈ 528 µM) | 16 µg/mL (≈ 33 µM) |  | 1 µg/mL (≈ 2.06 µM) |
| CCn1cc(C(=O)O)c(=O)c2ccc(C)nc21 [NALIDIXIC ACID] | 2 µg/mL (≈ 8.61 µM) | 128 µg/mL (≈ 551 µM) |  |  |
| CN(C)[C@@H]1C(O)=C(C(N)=O)C(=O)[C@@]2(O)C(O)=C3C(=O)c4c(O)cccc4[C@@](C)(O)[C@H]3C[C@@H]12 [TETRACYCLINE] | 256 µg/mL (≈ 576 µM) | ≤ 0.5 µg/mL |  |  |
| GENTAMICIN | < 0.5 µg/mL | 64 µg/mL |  |  |
